Reference: ChEMBL document CHEMBL3352682, “Unusual C,O-Fused Glycosylapigenins from Serjania marginata Leaves” (J Nat Prod, 2015)
Values after ≈ are worked out from the molar mass of the structure shown.

Key:
[1] = Antioxidant activity assessed as DPPH radical scavenging activity after 30 mins by UV-spectrophotometry; assay type: physicochemical
[2] = Antioxidant activity assessed as DPPH radical scavenging activity at <= 20 ug/ml after 30 mins by UV-spectrophotometry; assay type: physicochemical; details: 0.5 h

SMILES	IC50 [1]	inhibition (INH) [2]
C[C@@H]1O[C@@H](O[C@H]2C(=O)[C@@H](O)[C@H](C)O[C@@H]2c2c(O)cc3oc(-c4ccc(O)cc4)cc(=O)c3c2O)[C@H](O)[C@H](O)[C@H]1O	Not Active	Not Active
C[C@@H]1O[C@@H](O[C@H]2C(=O)[C@@H](O)[C@H](C)O[C@@H]2c2c(O)cc(O)c3c(=O)cc(-c4ccc(O)cc4)oc23)[C@H](O)[C@H](O)[C@H]1O	Not Active	Not Active
O=C(O)c1cc(O)c(O)c(O)c1 [GALLIC ACID]	8.42 µg/mL (≈ 49.5 µM)	

Continued, values first:

IC50 [1]	inhibition (INH) [2]	SMILES
5.3 µg/mL (≈ 6.13 µM)		Oc1cc(O)c2c(c1)O[C@@]1(c3ccc(O)c(O)c3)Oc3cc(O)c4c(c3[C@@H]2[C@H]1O)O[C@H](c1ccc(O)c(O)c1)[C@H](O)[C@H]4c1c(O)cc(O)c2c1O[C@H](c1ccc(O)c(O)c1)[C@H](O)C2 [CINNAMTANNIN B1]
8.55 µg/mL (≈ 14.8 µM)		Oc1cc(O)c2c(c1)O[C@@]1(c3ccc(O)c(O)c3)Oc3cc(O)c4c(c3[C@@H]2[C@H]1O)O[C@H](c1ccc(O)c(O)c1)[C@@H](O)C4 [PROANTHOCYANIDIN A1]
9.71 µg/mL (≈ 16.8 µM)		Oc1cc(O)c2c(c1)O[C@@]1(c3ccc(O)c(O)c3)Oc3cc(O)c4c(c3[C@@H]2[C@H]1O)O[C@H](c1ccc(O)c(O)c1)[C@H](O)C4 [PROANTHOCYANIDIN A2]
